Laboratory results published in US20180344768A1, “NK CELL-BASED THERAPY” (Onkimmune Limited, priority 2016, published 2018).

Key:
[1] = tested on: NKG2D (activating receptor); assay: Receptor expression on KHYG-1 cells after IL-6 stimulation; format: cell-based, human; conditions: 50 ng/mL IL-6 in the presence of IL-2, 24 hours
Text: (§1) Negative control means FMO. APC anti-human NKG2D Antibody (catalog number #320807) was bought from Biolegend. APC anti-human NKG2A Antibody (catalog number FAB1059A) was bought from R&D systems.

[2] = tested on: NKG2A (inhibitory receptor); assay: as above; format: cell-based, human; conditions: 50 ng/mL IL-6 in the presence of IL-2, 24 hours
Text: as §1

[3] = tested on: p-STAT3, p-SHP1, p-SHP2, p-P44/42; assay: IL-6 / IL-2 signaling in KHYG-1 cells, gel electrophoresis; format: cell-based, human
Text: PE labeled mouse anti-human CD126 (IL-6 receptor alpha chain) (Catalog: 551850), PE labeled mouse anti-human CD130 (gp130, IL-6 receptor-associated signal transducer) (Catalog #:555757), PE-labeled Mouse IgG1 k isotype control (Catalog: 555749), APC-labeled mouse anti-human CD2 (Catalog: 560642), FITC-labeled mouse anti-human CD2 (Catalog: 555326), APC-labeled mouse anti-human PD-L1 (Catalog: 563741) and APC-labeled mouse anti-human PD-L2 (Catalog: 557926) were bought from BD Pharmingen. APC-labeled mouse anti-human PD1 antibody (Catalog: 329907) was bought from Biolegend. Phosphor-Stat3(Ser727) mouse mAb (Catalog:9136), Phosphor-Shp-1(Tyr564) rabbit mAb (Catalog; 8849), Phosphor-Shp-2(Tyr580) rabbit mAb (Catalog: 5431), Phospho-p44/42 MAPK (Erk1/2) (Thr202/Tyr204) rabbit mAb (Catalog: 4370) and p44/42 MAPK (Erk1/2) rabbit mAb were bought from Cell Signaling Technology. Phosphor-Stat3(Tyr705) mouse mAb (Catalog: sc-81523) and rabbit anti-human Stat3 polyclonal antibody (Catalog: sc-7179) were bought from Santa Cruz Biotechnology. Mouse anti-beta actin (Catalog: A5441) was bought from SIGMA-ALDRICH. Functional IL-6 blocking antibody (Catalog: 501110) and the related isotype control antibody (Catalog: 400414) were bought from Biolegend.
KHYG-1 cells were cultivated and maintained as mentioned above.

PD-L1 = assay: Checkpoint ligand expression on MM cells treated with IL-6; format: cell-based, human; conditions: 100 ng/mL IL-6, 48 hours
Method: (§2) MM cells in log phase were seeded at 0.5 million/mL in RPMI1640 medium containing 10% FBS. A final concentration of 100 ng/mL IL-6 or same volume of vehicle (PBS) was used to treat MM cells for 48 hours. Then MM cells were harvested, washed, and stained with PD-L1 and PD-L2 antibodies (2.5 uL/test). Flow cytometric data were acquired using a FACS Canto II, and the results were further analyzed by […] 8.0.1 software.

PD-L2 = assay: as above; format: cell-based, human; conditions: 100 ng/mL IL-6, 48 hours
Method: as §2

RPMI8226 cells = assay: Inhibition of KHYG-1 cell cytotoxicity by IL-6, flow cytometry; format: cell-based; conditions: RPMI8226, IL-6 100 ng/mL, E:T 1:1, 12 hr incubation
Method: (§3) KHYG-1, RPMI8226, MM1.S and K562 cells were cultured and maintained as described above. Cells were harvested in log phase, washed and re-suspended in pre-warmed appropriate mediums, before adjusting the cell concentration to 1 million/mL. The concentration of target cells was adjusted according to the E:T (effector: target) ratio. 0.5 mL KHYG-1 cells and 0.5 mL target cells were added to one well of a 24-well plate. IL-6 was added to the wells at final concentration of 100 ng/mL. The plates were then placed in a humidified 37° C./5% CO2 incubator for 12 hours (6 or 4 hours for K562 cells). The same mixture of KHYG-1 and target cells at time point 0 hr were used as a control.
(§4) Flow cytometry was used to measure the cytotoxicity of KHYG-1 cells. The co-cultured cells were collected (at different time points), washed and then stained with CD2-APC antibody (2.5 uL/test) first, then stained with AnnexinV-FITC (2.5 uL/test) and SYTOX-Green (0.5 uL/test) using AnnexinV binding buffer. Data were further analyzed using FlowJo 7.6.1 software. CD2-positive and CD2-negative gates were set which represent KHYG-1 cells and target cells, respectively. KHYG-1 cells were 100% positive for CD2, but K562, RPMI8226 and MM1.S cells were CD2-negative. Finally, the percentage of AnnexinV-FITC and SYTOX-Green positive cells (dead cells) in CD2-negative population was analyzed.

MM1.S cells = assay: as above; format: cell-based; conditions: IL-6 100 ng/mL, E:T 1:1, 12 hr incubation
Method: as §3, §4

K562 cells = assay: as above; format: cell-based; conditions: K562, IL-6 100 ng/mL
Method: as §3, §4

[4] = KHYG-1 cells starved of IL-2 for 6 hours, cytokine alone (IL-2 10 ng/mL or IL-6 100 ng/mL)
[5] = KHYG-1 cells, IL-6 in the presence of IL-2

IL-6: Recombinant Human IL-6 (Catalog: 200-06) from PEPROTECH
NKG2D expression levels [1]: decreasing expression levels | NKG2A expression [2]: increasing expression | p-P44/42 [3, 4]: decreased expression | p-SHP1 [3, 4]: activated | p-SHP2 [3, 4]: activated | p-STAT3 [3, 4]: activated | p-P44/42 expression [3, 5]: decreasing | p-SHP1 expression [3, 5]: increasing | p-SHP2 expression [3, 5]: increasing | PD-L1 expression (PD-L1; MM1.S cells): upregulation | PD-L1 expression (PD-L1; NCI-H929 cells): upregulation | PD-L1 expression (PD-L1; RPMI8226 cells): upregulation | PD-L1 expression (PD-L1; U266 cells): upregulation | PD-L2 expression (PD-L2; MM1.S cells): upregulation | PD-L2 expression (PD-L2; NCI-H929 cells): upregulation | PD-L2 expression (PD-L2; RPMI8226 cells): upregulation | PD-L2 expression (PD-L2; U266 cells): upregulation | percentage of dead target cells co-cultured with KHYG-1 cells (RPMI8226 cells): decreased | percentage of dead target cells co-cultured with KHYG-1 cells (MM1.S cells): decreased | percentage of dead target cells co-cultured with KHYG-1 cells (K562 cells; E:T 1:1, 4 hr incubation): decreased | percentage of dead target cells co-cultured with KHYG-1 cells (K562 cells; E:T 1:1, 6 hr incubation): decreased
